According to BindingDB's records for patent US20240158408 (280 Bio, 2024):

Assays:
[1] = target: Phosphatidylinositol 4,5-bisphosphate 3-kinase catalytic subunit alpha isoform [H1047R] (Homo sapiens, UniProt P42336, H1047R)
[2] = target: Phosphatidylinositol 4,5-bisphosphate 3-kinase catalytic subunit alpha isoform (Homo sapiens, UniProt P42336); assay: ADP-Glo Kinase Assay
Sequence of Phosphatidylinositol 4,5-bisphosphate 3-kinase catalytic subunit alpha isoform (P42336 whole entry, canonical isoform): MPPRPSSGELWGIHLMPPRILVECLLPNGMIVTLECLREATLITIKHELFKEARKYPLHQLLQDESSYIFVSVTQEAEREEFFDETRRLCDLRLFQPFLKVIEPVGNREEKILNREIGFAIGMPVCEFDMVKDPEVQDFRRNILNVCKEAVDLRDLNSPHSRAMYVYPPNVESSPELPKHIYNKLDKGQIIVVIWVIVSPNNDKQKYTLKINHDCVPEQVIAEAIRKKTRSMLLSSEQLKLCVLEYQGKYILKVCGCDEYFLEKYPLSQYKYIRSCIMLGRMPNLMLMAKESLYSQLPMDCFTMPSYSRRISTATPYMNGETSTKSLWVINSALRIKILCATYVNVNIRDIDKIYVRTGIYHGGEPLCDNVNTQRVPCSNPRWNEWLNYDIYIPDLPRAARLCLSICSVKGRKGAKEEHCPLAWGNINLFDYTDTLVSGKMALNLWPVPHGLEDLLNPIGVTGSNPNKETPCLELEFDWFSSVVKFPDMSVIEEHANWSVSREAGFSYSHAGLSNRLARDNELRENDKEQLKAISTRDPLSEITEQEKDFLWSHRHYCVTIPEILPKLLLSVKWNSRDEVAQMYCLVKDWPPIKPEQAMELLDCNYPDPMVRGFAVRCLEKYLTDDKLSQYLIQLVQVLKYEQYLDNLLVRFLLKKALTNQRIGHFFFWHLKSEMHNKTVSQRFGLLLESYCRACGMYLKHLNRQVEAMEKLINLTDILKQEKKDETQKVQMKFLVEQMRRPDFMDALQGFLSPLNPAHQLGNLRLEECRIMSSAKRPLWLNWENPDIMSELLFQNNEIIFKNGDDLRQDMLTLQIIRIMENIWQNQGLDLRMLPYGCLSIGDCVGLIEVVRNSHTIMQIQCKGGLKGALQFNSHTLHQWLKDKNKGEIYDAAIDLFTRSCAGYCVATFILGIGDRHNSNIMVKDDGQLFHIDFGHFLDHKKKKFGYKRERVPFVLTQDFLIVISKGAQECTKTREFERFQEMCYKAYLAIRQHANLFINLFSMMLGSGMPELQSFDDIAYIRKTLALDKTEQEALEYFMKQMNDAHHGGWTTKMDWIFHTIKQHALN

Sequence of Phosphatidylinositol 4,5-bisphosphate 3-kinase catalytic subunit alpha isoform [H1047R] (P42336 whole entry H1047R, canonical isoform): as the sequence (P42336 whole entry, canonical isoform) above, with H1047R counted along it

Row | IC50 [1] | IC50 [2] | Structure (SMILES)
1 | < 0.25 µM | > 10 µM | Cn1nc2ccc(NC(=O)c3cc(F)cc(C(F)(F)F)c3)c3c2c1C(=O)NC3c1cc(Cl)ccc1Cl (stereo unspecified) [US20240158408, Compound YL104]
2 | < 0.25 µM | > 10 µM | Cn1nc2c(-c3ccc4ncnn4c3C#N)cc(NC(=O)c3cc(F)cc(C(F)(F)F)c3)c3c2c1C(=O)NC3c1cc(F)ccc1Cl (stereo unspecified) [US20240158408, Compound YL106]
3 | < 0.25 µM | > 10 µM | Cn1nc2c(-c3ccc4ncnn4c3C#N)cc(NC(=O)c3cc(F)cc(C(F)(F)F)c3)c3c2c1C(=O)NC3c1cc(Cl)ccc1Cl (stereo unspecified) [US20240158408, Compound YL107]
